The source of these data is patent EP0206138A1, “Anthracycline compounds, a process for their preparation and their use as medicaments” (priority 1985, dated 1986).

Values after ≈ are worked out from the molar mass of the structure shown. Values joined by “and” are separate entries in the source; they are usually repeats but may differ in a detail not shown here. Identical values can stand only once. Like-named read-outs stand apart in the source and are kept apart here.

Broadly, the MIC is the lowest concentration that inhibits growth of the organism. A high value points to weaker potency. One may read the IC50 as the concentration that inhibits the measured activity by half.

One data set has as its system E. coli K-12. The data set is described as follows: Antimicrobial activity, MIC by agar dilution method. It counts as cell-based. As to conditions: E. coli K-12, agar dilution method. Here is the method:
(§1) The antimicrobial activities of barminomycin I and Ir of the present invention, and that of carminomycin III were determined by the agar dilution method.

The test system of another data set is E. coli NIHJ. The description is as above. The class given is cell-based. The protocol: as §1
The test system of data set [1] is Mycobacterium smegmatis 607. The data set is described as above. As to conditions: Mycobacterium smegmatis 607, agar dilution method. The class given is cell-based. Here is the method:
as §1
Background: In agar dilution, organisms are placed on agar that contains the substance at set levels.

Data set [2] relates to Bacillus subtilis PCI 219. The data set is described as above. The class given is cell-based. The conditions noted are these: Bacillus subtilis PCI 219, agar dilution method. The protocol:
as §1

The next data set deals with S. aureus MS8710. Described as above. It counts as cell-based. The protocol: as §1
In data set [3] the test system is Micrococcus Lysodeikticus IFO 3333. The data set is described as above. The class given is cell-based. The conditions noted are these: Micrococcus Lysodeikticus IFO 3333, agar dilution method. Here is the method: as §1
For data set [4], the system named is Pseudomonas aeruginosa A3. Described as above. It counts as cell-based. The protocol:
as §1

Another data set relates to S. aureus MS9610. The data set is described as above. It counts as cell-based. The protocol:
as §1

The test system of a further data set is Proteus vulgaris OX19. Described as above. The class given is cell-based. Here is the method: as §1
Data set [5] deals with Klebsiella p eumoniae PCI 602. The data set is described as above. It counts as cell-based. As to conditions: Klebsiella p eumoniae PCI 602, agar dilution method. Here is the method: as §1
For data set [6], the system named is Staphylococcus aureus FAD 209P. The description is as above. It counts as cell-based. The protocol:
as §1

The test system of the next data set is S. aureus Smith. The data set is described as above. It counts as cell-based. The protocol:
as §1

The subject of the next data set is E. coli BE1121. The description is as above. It counts as cell-based. The protocol: as §1
The next data set relates to Serratia marcescens. Described as above. The class given is cell-based. The protocol:
as §1

In another data set the test system is P388 leukemia cells. The data set is described as follows: Cytotoxicity on tissue culture: growth inhibition of cultured P388 leukemia cells. The class given is cell-based. The source says:
(1) Cytotoxicity (on tissue culture)
The barminomycin compounds of the present invention were capable of inhibiting the growth of cultured P388 leukemia cells in very low concentrations. […] For further detail, see the following table.

For a further data set, the system named is L1210 leukemia cells. Briefly: Anti-tumor activity: L1210 leukemia transplanted intraperitoneally into CDF1 mice, life prolongation. It counts as in vivo. The conditions noted are these: for percentage life prolongation (T/C%): saline control = 100; for intoxication: L1210-bearing CDF1 mice. Here is the method:
L1210 leukemia cells (1 x 10^5 per animal) were transplanted intraperitoneally into CDF1 mice. Immediately after the transplantation, 0.25 ml of a selected test compound in solution was administered intraperitoneally in accordance with the schedule shown below. The anti-tumor activities of the test compounds in terms of percentage life prolongation (T/C%) are listed in the same table, with the number of days of survival of control mice to which physiological saline had been administered being taken as 100 (day 0 means the day of L1210 transplantation).

Another data set deals with E. coli BE1186. Briefly: Antimicrobial activity, MIC by agar dilution method. The class given is cell-based. Here is the method:
as §1

Setting [7] is: 0.0078 µg/mouse/day intraperitoneally, 0 - 10 days (daily).
The mark [8] stands for this setting: 0.0157 µg/mouse/day intraperitoneally, 0 - 10 days (daily).
[9] abbreviates: 0.0625 µg/mouse/day intraperitoneally, 0 - 10 days (daily).
Setting [10] is: 0.125 µg/mouse/day intraperitoneally, 0 - 10 days (daily).
Where [11] appears, read: 0.25 µg/mouse/day intraperitoneally, 0 - 10 days (daily).
Where [12] appears, read: 1.25 µg/mouse/day intraperitoneally, 0 - 9 days (daily).
Where [13] appears, read: 2.5 µg/mouse/day intraperitoneally, 0 - 9 days (daily).
[14] abbreviates: 5 µg/mouse/day intraperitoneally, 0 - 9 days (daily).
Where [15] appears, read: 10 µg/mouse/day intraperitoneally, 0 - 9 days (daily).
Setting [16] is: 20 µg/mouse/day intraperitoneally, 0 - 9 days (daily).
Where [17] appears, read: 40 µg/mouse/day intraperitoneally, 0 - 9 days (daily).

For the compound carminomycin III [reference compound], the MIC in the data set with E. coli K-12 is above 50 µg/mL; with E. coli NIHJ it was above 50 µg/mL; in [1] it was 6.25 µg/mL; in [2] it was 1.56 µg/mL; against S. aureus MS8710 it was 1.56 µg/mL; in data set [3] it was 1.56 µg/mL. In addition, the MIC in data set [4] was above 50 µg/mL; against S. aureus MS9610 it was 1.56 µg/mL; against Proteus vulgaris OX19 it was above 50 µg/mL; in data set [5], 50 µg/mL; in [6], 3.12 µg/mL; in the data set with S. aureus Smith, 3.12 µg/mL. The minimum inhibitory concentration (MIC) was 1.56 µg/mL against E. coli BE1121 and 25 µg/mL in the data set with Serratia marcescens. Also, in the data set on P388 leukemia cells, the IC50 was determined as 0.006 µg/mL.

With `CC(=O)[C@]1(O)Cc2c(O)c3c(c(O)c2[C@@H](O[C@H]2C[C@H](N)[C@H](O)[C@H](C)O2)C1)C(=O)c1c(O)cccc1C3=O` [Carminomycin I, carminomycin I, reference compound], the IC50 in the data set on P388 leukemia cells (Mus musculus, read-out: IC50) stood at 0.002 µg/mL (≈ 0.00389 µM).

As to `CC(=O)C1(O)Cc2c(O)c3c(c(O)c2C(OC2CC4N=CC(C)OC(CC(C)O)OC4C(C)O2)C1)C(=O)c1c(O)cccc1C3=O` (single isomer, unassigned) [Barminomycin II], the half-maximal inhibitory concentration (IC50) in the data set with P388 leukemia cells is ~ 0.00002 µg/mℓ. Also, the “percentage life prolongation (T/C%)” value with L1210 leukemia cells (setting [7]) is >500%, >500%; in the data set with L1210 leukemia cells (setting [8]), 120%; in the data set with L1210 leukemia cells (setting [10]) it was 173%; in the data set with L1210 leukemia cells (0.313 µg/mouse/day intraperitoneally, 0 - 10 days (daily)) it was 140%. The intoxication result in the data set with L1210 leukemia cells (setting [9]) is “tendency of intoxication”; with L1210 leukemia cells (setting [10]), “tendency of intoxication”; in the data set on L1210 leukemia cells (setting [11]), “Intoxicated to death at 4 days, and 5 days”.

Compound `CC(=O)C1(O)Cc2c(O)c3c(c(O)c2C(OC2CC4NCC(C)OC(CC(C)O)OC4C(C)O2)C1)C(=O)c1c(O)cccc1C3=O` (single isomer, unassigned) [Barminomycin IIr] registered an IC50 with P388 leukemia cells of 0.002 µg/mL (≈ 0.00312 µM). Also, the “percentage life prolongation (T/C%)” value in the data set on L1210 leukemia cells (setting [12]) is on record as 123%; in the data set on L1210 leukemia cells (setting [13]), 129%; with L1210 leukemia cells (setting [14]) it was 123%; in the data set with L1210 leukemia cells (setting [15]), 86%; with L1210 leukemia cells (setting [16]), 43%; with L1210 leukemia cells (setting [17]), 37%. In addition, the intoxication result in the data set with L1210 leukemia cells (setting [16]) and in the data set with L1210 leukemia cells (setting [17]) was “Intoxication” in each case.

On to `CC(=O)C1(O)Cc2c(O)c3c(c(O)c2C(OC2CC4N=CC(C)OC(CC(C)O)OC4C(C)O2)C1)C(=O)c1c(O)cccc1C3=O` (centres unmarked) [Barminomycin I], for which the MIC in the data set with E. coli K-12 was 0.78 µg/mL (≈ 1.22 µM); against E. coli NIHJ, 3.12 µg/mL (≈ 4.88 µM); in [1], 0.78 µg/mL (≈ 1.22 µM); in [2], below 0.1 µg/mL; in the data set with S. aureus MS8710, 0.2 µg/mL (≈ 0.313 µM); in data set [3] it was 0.2 µg/mL (≈ 0.313 µM). Moreover, the MIC in data set [4] came out at 1.56 µg/mL (≈ 2.44 µM); with S. aureus MS9610, 0.2 µg/mL (≈ 0.313 µM); in the data set with Proteus vulgaris OX19 it was 3.12 µg/mL (≈ 4.88 µM); in [5], 0.39 µg/mL (≈ 0.61 µM); in [6] it was 0.2 µg/mL (≈ 0.313 µM); against S. aureus Smith, 0.2 µg/mL (≈ 0.313 µM). Further, the MIC in the data set with E. coli BE1121 was below 0.1 µg/mL; in the data set on Serratia marcescens it was 0.78 µg/mL (≈ 1.22 µM); against E. coli BE1186, below 0.1 µg/mL. For the same compound, in the data set on P388 leukemia cells, the IC50 is on record as ~ 0.00001 µg/mℓ. Also, the “percentage life prolongation (T/C%)” value in the data set with L1210 leukemia cells (setting [7]) is 160%; in the data set on L1210 leukemia cells (setting [8]), 187% and 120%; in the data set on L1210 leukemia cells (setting [9]), 213% and 147%; in the data set with L1210 leukemia cells (setting [10]), 147%; with L1210 leukemia cells (setting [11]), 120%. The intoxication result in the data set on L1210 leukemia cells (setting [10]) is “tendency of intoxication”; in the data set with L1210 leukemia cells (setting [11]), “Intoxicated to death at 4 days”.

`CC(=O)C1(O)Cc2c(O)c3c(c(O)c2C(OC2CC(N)C(OC(CC(C)O)OC(C)CO)C(C)O2)C1)C(=O)c1c(O)cccc1C3=O` (centres unmarked) [Carminomycin II, carminomycin II, reference compound] had an IC50 in the data set with P388 leukemia cells of 0.010 µg/mL (≈ 0.0152 µM).

As for `COc1cccc2c1C(=O)c1c(O)c3c(c(O)c1C2=O)C[C@@](O)(C(=O)CO)C[C@@H]3O[C@H]1C[C@H](N)[C@H](O)[C@H](C)O1` [Adriamycin, adriamycin, reference compound], in the data set on P388 leukemia cells (Mus musculus, read-out: IC50), the IC50 was found to be 0.013 µg/mL (≈ 0.0239 µM).

In the case of `CC(=O)C1(O)Cc2c(O)c3c(c(O)c2C(OC2CC4NCC(C)OC(CC(C)O)OC4C(C)O2)C1)C(=O)c1c(O)cccc1C3=O` (single isomer, unassigned) [Barminomycin Ir], the MIC was found to be 6.25 µg/mL (≈ 9.74 µM) in the data set with E. coli K-12; 50 µg/mL (≈ 77.9 µM) in the data set with E. coli NIHJ; 6.25 µg/mL (≈ 9.74 µM) in [1]; 0.39 µg/mL (≈ 0.608 µM) in data set [2]; 1.56 µg/mL (≈ 2.43 µM) against S. aureus MS8710; 0.78 µg/mL (≈ 1.22 µM) in data set [3]. Moreover, the MIC was 12.5 µg/mL (≈ 19.5 µM) in [4]; 1.56 µg/mL (≈ 2.43 µM) in the data set with S. aureus MS9610; above 50 µg/mL in the data set with Proteus vulgaris OX19; 6.25 µg/mL (≈ 9.74 µM) in [5]; 0.78 µg/mL (≈ 1.22 µM) in [6]; 0.78 µg/mL (≈ 1.22 µM) in the data set on S. aureus Smith. Moreover, the MIC in the data set on E. coli BE1121 is 0.2 µg/mL (≈ 0.312 µM); against Serratia marcescens, 3.12 µg/mL (≈ 4.86 µM); in the data set with E. coli BE1186 it was 0.2 µg/mL (≈ 0.312 µM). For the same compound, the IC50 in the data set on P388 leukemia cells amounted to 0.0015 µg/mL (≈ 0.00234 µM). Moreover, the “percentage life prolongation (T/C%)” value is listed as 97% in the data set on L1210 leukemia cells (setting [12]); 129% in the data set with L1210 leukemia cells (setting [13]); 141% with L1210 leukemia cells (setting [14]); 49% in the data set with L1210 leukemia cells (setting [15]); 37% in the data set on L1210 leukemia cells (setting [16]); 25% with L1210 leukemia cells (setting [17]). For the same compound, the intoxication result in the data set with L1210 leukemia cells (setting [15]) is “Tendency of intoxication”; in the data set on L1210 leukemia cells (setting [16]) it was “Intoxication”; with L1210 leukemia cells (setting [17]), “Intoxication”.
